Consider ten compounds from patent US8895695B2, “Template-fixed beta-hairpin peptidomimetics with CXCR4 antagonizing activity” (priority 2003, dated 2014).

The subject of series [1] is human red blood cells (hRBC). Put plainly: Hemolysis. In kind it is cell-based. A digest of the protocol: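 Washed fresh human erythrocytes (20% v/v, about 0.9×10^9 cells/ml final) incubated with peptide at 100 μM for 1 h at 37° C. Supernatant diluted 20-fold and OD540 read. Percent hemolysis relative to 0.1% Triton X-100 in H2O (100%), with PBS alone as 0%.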
Series [2] can be described thus: in vitro. Particulars: human; for CC50 at 48 h: HELA cells (Acc57).
Series [3] has as its target T1, CXCR4 (Homo sapiens, UniProt P61073). The series is described as follows: Ca2+-assay method 1: CXCR4-antagonizing activity. Particulars: method 1 (Ex. 1-53), CXCR4 transfected pre-B cells, Fura-2; read-out: IC50 (nM) Ca^2+ assay. Also noted: expressed in transfected cells. In kind it is cell-based. The procedure:
2.2. Ca^2+-Assay: CXCR4-Antagonizing Activity of the Peptides.
The cells were washed free from Fura-2-AM with a platelet centrifuge and resuspended in 800 μl MSB containing 5 mM D-Glucose. The peptides to be administered were diluted to a 100 fold end concentration in MSB/0.2% PPL, and 8 μl were injected. […] Measurements were done under continuous stirring at 37° C. The signal intension was calibrated with 3 mM CaCl2/[…] lonomycin (maximal fura-2-acetoxymethylester saturation) and 10 μM MnCl2 (minimal Fura-2-acetoxymethylester saturation) and [Ca^2+]i-changes are presented in % fora-2-acetoxymethylester saturation. The rate of [Ca^2+]i-changes was calculated on the basis of the initial [Ca^2+]i-changes and plotted in dependence of chemokine concentration to obtain a sigmoidal curve and to determine the IC50 values.
Osmolarity: 310 mOsm adjusted with NaOH or HCl, adjusted with H2O or PBS.
MSB plus: 5 mM D-glucose in MSB (50 mg/50 mL).
Fura 2-acetoxymethylester: 1 mM stock solution in dimethylsulfoxide.

Series [4] can be described thus: in vitro. In kind it is in vitro ADME. The settings on record: plasma. The procedure: 405 μl of plasma/albumin solution were placed in a polypropylene (PP) tube and spiked with 45 μl of compound from a 100 μM solution B, derived from 135 μl of PBS and 15 μl of 1 mM peptide in PBS, pH 7.4. 150 μl aliquots were transferred into individual wells of the 10 kDa filter plate (Millipore MAPPB 1010 Biomax membrane). For “0 minutes controls”: 270 μl of PBS were placed in a PP tube and 30 μl of stock solution B was added and vortexed. 150 μl of control solution was placed into one well of the filter plate and serves as “filtered control”.
Further 150 μl of control solution were placed directly into a receiver well (reserved for filtrate) and serve as “not-filtered control”. The entire plate including evaporation lid was incubated for 60 min at 37° C. Plasma samples (rat plasma: Harlan Sera lab UK, human plasma: Blutspendezentrum Zürich) were centrifuged at least for 2 h at 4300 rpm (3500 g) and 15° C. in order to yield 100 μl filtrate. For “serum albumin”-samples (freshly prepared human albumin: Sigma A-4327, rat albumin: Sigma A-6272, all at 40 mg/ml concentration in PBS) approximately 1 hour of centrifugation is sufficient. The filtrates in the receiver PP plate were analysed by LC/MS as followes: Column: Jupiter C18 (Phenomenex), mobile phases: (A) 0.1% formic acid in water and (B) acetonitrile, gradient: 5%-100% (B) in 2 minutes, electrospray ionization, MRM detection (triple quadrupole). The peak areas were determined and triplicate values are averaged. The binding is expressed in percent of the (filtered and not-filtered time point 0 min) control 1 and 2 by: 100−(100*T60/T0). The average from these values is then calculated (see ref. 9 below).

In series [5] the target is T1, CXCR4. Put plainly: Ca2+-assay method 2 (Flexstation, SDF-1 induced calcium mobilization). In kind it is cell-based. Also on record: expressed in transfected cells; host or cells: mouse pre-B cell line 300-19. The settings on record: method 2 (Ex. 54-160), mouse pre-B cell line 300-19 with human CXCR4, 10 nM SDF-1; read-out: IC50 (nM) Ca^2+ assay. In general terms: Calcium assays in cells follow changes in intracellular calcium, usually with a dye or a luminescent sensor.

SMILES strings stand for the structures. Numbered stars: 1 amine (or outer) side, 2 acyl side, 3 side chain; on linkers, the order of the positions; unused ones are H or OH. Bridge positions count the residues as written; N and C are the ends. Square brackets hold non-standard residues; d marks the D form. Peptide text beside a SMILES is read from it. X1 = CC(C)CN(CCC[C@H](N[*:1])C(=O)[*:2])CC(C)C; 2Nal = N[C@@H](Cc1ccc2ccccc2c1)C(=O)O; Cit = NC(=O)NCCC[C@H](N)C(=O)O; Dab = NCC[C@H](N)C(=O)O
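Throughout, for CC50: MTT reduction read as absorbance at 595 nm, blank-corrected and expressed as percent growth relative to the time-zero cell reading, triplicate wells per concentration.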
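Throughout, for GI50: MTT reduction read as absorbance at 595 nm, blank-corrected and expressed as percent growth relative to the time-zero cell reading, triplicate wells per concentration.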

T1 sequence (P61073 whole entry): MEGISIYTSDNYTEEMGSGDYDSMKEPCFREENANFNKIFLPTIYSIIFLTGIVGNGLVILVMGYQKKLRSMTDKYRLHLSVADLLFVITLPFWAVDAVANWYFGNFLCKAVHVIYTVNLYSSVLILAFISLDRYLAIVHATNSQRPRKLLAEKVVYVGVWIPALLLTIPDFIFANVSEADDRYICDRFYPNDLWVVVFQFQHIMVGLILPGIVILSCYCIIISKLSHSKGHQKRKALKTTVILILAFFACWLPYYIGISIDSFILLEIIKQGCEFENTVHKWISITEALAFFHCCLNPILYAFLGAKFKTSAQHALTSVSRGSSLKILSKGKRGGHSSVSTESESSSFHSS

The CC50 is the concentration at which the toxic effect on the cells reaches its halfway point. What is called IC50 is the concentration needed to halve the response being measured. `CC(C)[C@@H]1NC(=O)[C@H](CCCNC(N)=O)NC(=O)[C@H](CCCNC(=N)N)NC(=O)[C@H](Cc2ccc(O)cc2)NC(=O)[C@@H]2CCCN2C(=O)[C@H]2CCCN2C(=O)[C@H](CCCCN)NC(=O)[C@H](CCCNC(N)=O)NC(=O)[C@H](Cc2ccc(O)cc2)NC(=O)[C@H](Cc2ccccc2)NC(=O)[C@H](Cc2ccc3ccccc3c2)NC(=O)[C@H](CCCNC(=N)N)NC(=O)[C@H](CCCNC(=N)N)NC(=O)[C@H](CCCNC(=N)N)NC1=O` [compound 4] (cyclo(YR[Cit]VRRR[2Nal]FY[Cit]K[dP]P)) yielded a Hemolysis at 100 μM in series [1] of 0.7%. The CC50 at 48 h in the series “in vitro [2]” turned out to be 191 µM. For the same compound, the IC50 at CXCR4 [3] was determined as 2540 nM.
Turning to `CC(C)[C@@H]1NC(=O)[C@H](CCCNC(N)=O)NC(=O)[C@H](CCCNC(=N)N)NC(=O)[C@H](Cc2ccc(O)cc2)NC(=O)[C@@H]2CCCN2C(=O)[C@H]2CCCN2C(=O)[C@H](CCCCN)NC(=O)[C@H](CCCNC(N)=O)NC(=O)[C@H](Cc2ccc(O)cc2)NC(=O)[C@H](Cc2ccccc2)NC(=O)[C@H](Cc2ccc3ccccc3c2)NC(=O)[C@H](CCCNC(=N)N)NC(=O)[C@H](CCCNC(=N)N)NC(=O)[C@H]2CCCN2C(=O)[C@H](C(C)C)NC(=O)[C@H](CCCNC(=N)N)NC1=O` [compound 32] (cyclo(YR[Cit]VRV[dP]RR[2Nal]FY[Cit]K[dP]P)), the Hemolysis at 100 μM in series [1] is 0.5%. Moreover, the CC50 at 48 h in “in vitro [2]” stood at 85 µM. Besides, the IC50 at CXCR4 [3] worked out at 760 nM.
For `CC(C)[C@@H]1NC(=O)[C@H](Cc2ccc3ccccc3c2)NC(=O)[C@H](CCCNC(=N)N)NC(=O)[C@H](CCCNC(=N)N)NC(=O)[C@@H]2CCCN2C(=O)[C@H](CCCNC(N)=O)NC(=O)[C@H](CCCNC(=N)N)NC(=O)[C@H](Cc2ccccc2)NC(=O)[C@H](CCCNC(N)=O)NC(=O)[C@H](CCCNC(=N)N)NC(=O)[C@H](Cc2ccc(O)cc2)NC(=O)[C@@H]2CCCN2C(=O)[C@H]2CCCN2C(=O)[C@H](CCCCN)NC(=O)[C@H](CCCNC(N)=O)NC(=O)[C@H](Cc2ccc(O)cc2)NC1=O` [compound 20] (cyclo(YR[Cit]FR[Cit]PRR[2Nal]VY[Cit]K[dP]P)) the same measures were 0.2%, 85 µM and 3730 nM.
On the same counts, the results for `N=C(N)NCCC[C@@H]1NC(=O)[C@H](CCCNC(=N)N)NC(=O)[C@H](Cc2ccccc2)NC(=O)[C@H](CCCNC(N)=O)NC(=O)[C@H](CCCNC(=N)N)NC(=O)[C@H](Cc2ccc(O)cc2)NC(=O)[C@@H]2CCCN2C(=O)[C@H]2CCCN2C(=O)[C@H](CCCCN)NC(=O)[C@H](CCCNC(N)=O)NC(=O)[C@H](Cc2ccc(O)cc2)NC(=O)[C@H](Cc2ccccc2)NC(=O)[C@H](Cc2ccc3ccccc3c2)NC(=O)[C@H](CCCNC(=N)N)NC1=O` [compound 3] (cyclo(YR[Cit]FRRR[2Nal]FY[Cit]K[dP]P)) are 1.7%, 126 µM and 1000 nM.
`CC(C)[C@@H]1NC(=O)[C@H](Cc2ccc3ccccc3c2)NC(=O)[C@H](CCCNC(=N)N)NC(=O)[C@H](CCCNC(=N)N)NC(=O)[C@@H]2CCCN2C(=O)[C@H](C(C)C)NC(=O)[C@H](CCCNC(=N)N)NC(=O)[C@H](Cc2ccccc2)NC(=O)[C@H](CCCNC(N)=O)NC(=O)[C@H](CCCNC(=N)N)NC(=O)[C@H](Cc2ccc(O)cc2)NC(=O)[C@@H]2CCCN2C(=O)[C@H]2CCCN2C(=O)[C@H](CCCCN)NC(=O)[C@H](CCCNC(N)=O)NC(=O)[C@H](Cc2ccc(O)cc2)NC1=O` [compound 22] (cyclo(YR[Cit]FRVPRR[2Nal]VY[Cit]K[dP]P)) had a Hemolysis at 100 μM in series [1] of 0%. Besides, in the series “in vitro [2]”, the CC50 at 48 h worked out at 139 µM. In addition, the IC50 on CXCR4 [3] was found to be 300 nM.
For `CC(C)[C@@H]1NC(=O)[C@H](CCCNC(N)=O)NC(=O)[C@H](CCCNC(=N)N)NC(=O)[C@H](Cc2ccc(O)cc2)NC(=O)[C@@H]2CCCN2C(=O)[C@H]2CCCN2C(=O)[C@H](CCCCN)NC(=O)[C@H](CCCNC(N)=O)NC(=O)[C@H](Cc2ccc(O)cc2)NC(=O)[C@H](Cc2ccccc2)NC(=O)[C@H](Cc2ccc3ccccc3c2)NC(=O)[C@H](CCCNC(=N)N)NC(=O)[C@H](CCCNC(=N)N)NC(=O)[C@@H]2CCCN2C(=O)[C@H](CCCNC(N)=O)NC(=O)[C@H](CCCNC(=N)N)NC1=O` [compound 31] (cyclo(YR[Cit]VR[Cit]PRR[2Nal]FY[Cit]K[dP]P)) the same measures were 0.1%, 82 µM and 1470 nM.
One may read the half-life as the time needed for the level to fall by half in the phase considered. By GI50 is commonly meant the concentration giving 50% growth inhibition. Lower therefore signals more potent growth inhibition. In turn, `N=C(N)NCCC[C@@H]1NC(=O)[C@H](CCCNC(=N)N)NC(=O)[C@H]2CCCN2C(=O)CNC(=O)[C@H](CO)NC(=O)[C@@H]2CSSC[C@H](NC(=O)[C@H](Cc3ccc4ccccc4c3)NC1=O)C(=O)N[C@@H](Cc1ccc(O)cc1)C(=O)N[C@@H](CCC(N)=O)C(=O)N[C@@H](CCCCN)C(=O)N1CCC[C@@H]1C(=O)N1CCC[C@H]1C(=O)N[C@@H](Cc1ccc(O)cc1)C(=O)N[C@@H](CCCNC(=N)N)C(=O)N[C@@H](CCCNC(N)=O)C(=O)N2` [Ex. 101] (cyclo(YR[Cit]CSG[dP]RR[2Nal]CYQK[dP]P); disulfide 4-11) showed a Hemolysis at 100 μM in series [1] of 0.6%. In addition, the half-life at 10 μM in “in vitro [4]” (human) is above 5 h; in “in vitro [4]” (rat), 4.12 h. This compound returned a GI50 at 48 h in the series “in vitro [2]” of 74 µM. For the same compound, the IC50 on CXCR4 [5] came to 1.28 nM.
On the same counts, the results for `N=C(N)NCCC[C@@H]1NC(=O)[C@@H]2CSSC[C@H](NC(=O)[C@H](Cc3ccc4ccccc4c3)NC(=O)[C@H](CCCNC(=N)N)NC(=O)[C@H](CCCNC(=N)N)NC(=O)[C@H]3CCCN3C(=O)CNC1=O)C(=O)N[C@@H](Cc1ccc(O)cc1)C(=O)N[C@@H](CCC(N)=O)C(=O)N[C@@H](CCCCN)C(=O)N1CCC[C@@H]1C(=O)N1CCC[C@H]1C(=O)N[C@@H](Cc1ccc(O)cc1)C(=O)N[C@@H](CCCNC(=N)N)C(=O)N[C@@H](CCC(=O)O)C(=O)N2` [Ex. 75] (cyclo(YRECRG[dP]RR[2Nal]CYQK[dP]P); disulfide 4-11) are 0%, 3.13 h, 2.37 h, above 100 µM and 3.5 nM.
For `C[C@@H](O)[C@@H]1NC(=O)[C@H](CCCNC(=N)N)NC(=O)[C@H](Cc2ccc(O)cc2)NC(=O)[C@@H]2CCCN2C(=O)[C@H]2CCCN2C(=O)[C@H](CCCCN)NC(=O)[C@H](CCC(N)=O)NC(=O)[C@H](Cc2ccc(O)cc2)NC(=O)[C@@H]2CSSC[C@H](NC1=O)C(=O)N[C@@H](CCCNC(=N)N)C(=O)NCC(=O)N1CCC[C@@H]1C(=O)N[C@@H](CCN)C(=O)N[C@@H](CCCNC(=N)N)C(=O)N[C@@H](Cc1c[nH]c3ccccc13)C(=O)N2` [Ex. 110] (cyclo(YRTCRG[dP][Dab]RWCYQK[dP]P); disulfide 4-11) the same measures were 0%, 1.92 h, 4.32 h, 48 µM and 1.7 nM.
In series [1], `CC(C)CN(CCC[C@@H]1NC(=O)[C@H]2CCCN2C(=O)CNC(=O)[C@H](CCCNC(=N)N)NC(=O)[C@@H]2CSSC[C@H](NC(=O)[C@H](Cc3ccc4ccccc4c3)NC(=O)[C@H](CCCNC(=N)N)NC1=O)C(=O)N[C@@H](Cc1ccc(O)cc1)C(=O)N[C@@H](CCCNC(N)=O)C(=O)N[C@@H](CCCCN)C(=O)N1CCC[C@@H]1C(=O)N1CCC[C@H]1C(=O)N[C@@H](Cc1ccc(O)cc1)C(=O)N[C@@H](CCCNC(=N)N)C(=O)N[C@@H](CCCNC(N)=O)C(=O)N2)CC(C)C` [Ex. 124] (cyclo(YR[Cit]CRG[dP][X1]R[2Nal]CY[Cit]K[dP]P); disulfide 4-11) returned a Hemolysis at 100 μM of 0%. Moreover, the half-life at 10 μM in “in vitro [4]” (human) and in the series “in vitro [4]” (rat) was above 5 h throughout. Besides, the GI50 at 48 h in “in vitro [2]” was 21 µM. For the same compound, on CXCR4 [5], the IC50 worked out at 5.9 nM.
